Test results from ChEMBL document CHEMBL5316365, “Anti-Neuroinflammatory Meroterpenoids from a Chinese Collection of the Brown Alga Sargassum siliquastrum” (J Nat Prod, 2023).
Activity calls are given as the source filed them. No cut-off for these calls is given here.

Legend:
BV-2 [1] = test: Anti-neuroinflammatory activity in LPS-induced mouse BV-2 cells assessed as inhibition of NO production pretreated for 4 hrs followed by LPS stimulation for 24 hrs by griess reagent based assay; type: functional, cell-based
[2] = Cytotoxicity against mouse BV-2 cells incubated for 24 hrs by MTT assay; type: toxicity, cell-based
[3] = target: Transcription factor p65 (Mus musculus) (UniProt Q04207); test: Inhibition of NF-kappaB p65 translocation from cytosol to nucleus in LPS-induced mouse BV-2 cells at 5 to 10 uM pretreated for 4 hrs followed by LPS stimulation and measured after 24 hrs by Western blot analysis; type: cell-based; settings: dose 5-10 µM, time 28.0 hrs
BV-2 [4] = test: Antineuroinflammatory activity in LPS-induced mouse BV-2 cells assessed as decrease in IL-1beta protein level pretreated for 4 hrs followed by LPS stimulation for 24 hrs by ELISA; type: functional, cell-based; settings: dose 2.5-10 µM, time 28.0 hrs
BV-2 [5] = test: Antineuroinflammatory activity in LPS-induced mouse BV-2 cells assessed as decrease in IL-6 protein level pretreated for 4 hrs followed by LPS stimulation for 24 hrs by ELISA; type: functional, cell-based; settings: dose 2.5-10 µM, time 28.0 hrs
BV-2 [6] = test: Antineuroinflammatory activity in LPS-induced mouse BV-2 cells assessed as decrease in TNFalpha protein level pretreated for 4 hrs followed by LPS stimulation for 24 hrs by ELISA; type: functional, cell-based; settings: dose 2.5-10 µM, time 28.0 hrs
BV-2 [7] = test: Antineuroinflammatory activity in LPS-induced mouse BV-2 cells assessed as decrease in IL-1beta mRNA level preincubated for 4 hrs followed by LPS stimulation and measured after 6 hrs by RT-PCR method; type: functional, cell-based; settings: dose 2.5-10 µM, time 10.0 hrs
BV-2 [8] = test: Antineuroinflammatory activity in LPS-induced mouse BV-2 cells assessed as decrease in IL-6 mRNA level preincubated for 4 hrs followed by LPS stimulation and measured after 6 hrs by RT-PCR method; type: functional, cell-based; settings: dose 2.5-10 µM, time 10.0 hrs
BV-2 [9] = test: Antineuroinflammatory activity in LPS-induced mouse BV-2 cells assessed as decrease in TNFalpha mRNA level preincubated for 4 hrs followed by LPS stimulation and measured after 6 hrs by RT-PCR method; type: functional, cell-based; settings: dose 2.5-10 µM, time 10.0 hrs
BV-2 [10] = test: Antineuroinflammatory activity in LPS-induced mouse BV-2 cells assessed as downregulation of NF-kappaB p65 protein expression in nucleus at 5 to 10 uM pretreated for 4 hrs followed by LPS stimulation and measured after 24 hrs by Western blot analysis; type: functional, cell-based; settings: dose 5-10 µM, time 28.0 hrs
BV-2 [11] = test: Effect on NF-kbeta p65 total protein level in mouse BV-2 cells at 5 to 10 uM pretreated for 4 hrs followed by LPS stimulation and measured after 24 hrs by Western blot analysis; type: functional, cell-based; settings: dose 5-10 µM, time 28.0 hrs
BV-2 [12] = test: Antineuroinflammatory activity in LPS-induced mouse BV-2 cells assessed as upregulation of IkappaB protein level in nucleus at 5 to 10 uM pretreated for 4 hrs followed by LPS stimulation and measured after 24 hrs by Western blot analysis; type: functional, cell-based; settings: dose 5-10 µM, time 28.0 hrs
BV-2 [13] = test: Antineuroinflammatory activity in LPS-induced mouse BV-2 cells assessed as downregulation of IKK protein level in nucleus at 5 to 10 uM pretreated for 4 hrs followed by LPS stimulation and measured after 24 hrs by Western blot analysis; type: functional, cell-based; settings: dose 5-10 µM, time 28.0 hrs
[14] = target: Transcription factor p65 (Mus musculus) (UniProt Q04207); test: Inhibition of NF-kappaB p65 translocation from cytosol to nucleus in LPS-induced mouse BV-2 cells at 2.5 to 10 uM pretreated for 4 hrs followed by LPS stimulation and measured after 24 hrs by immunofluorescence analysis; type: cell-based; settings: dose 2.5-10 µM, time 28.0 hrs

Sequence of Transcription factor p65 (Mus musculus) (Q04207 whole entry): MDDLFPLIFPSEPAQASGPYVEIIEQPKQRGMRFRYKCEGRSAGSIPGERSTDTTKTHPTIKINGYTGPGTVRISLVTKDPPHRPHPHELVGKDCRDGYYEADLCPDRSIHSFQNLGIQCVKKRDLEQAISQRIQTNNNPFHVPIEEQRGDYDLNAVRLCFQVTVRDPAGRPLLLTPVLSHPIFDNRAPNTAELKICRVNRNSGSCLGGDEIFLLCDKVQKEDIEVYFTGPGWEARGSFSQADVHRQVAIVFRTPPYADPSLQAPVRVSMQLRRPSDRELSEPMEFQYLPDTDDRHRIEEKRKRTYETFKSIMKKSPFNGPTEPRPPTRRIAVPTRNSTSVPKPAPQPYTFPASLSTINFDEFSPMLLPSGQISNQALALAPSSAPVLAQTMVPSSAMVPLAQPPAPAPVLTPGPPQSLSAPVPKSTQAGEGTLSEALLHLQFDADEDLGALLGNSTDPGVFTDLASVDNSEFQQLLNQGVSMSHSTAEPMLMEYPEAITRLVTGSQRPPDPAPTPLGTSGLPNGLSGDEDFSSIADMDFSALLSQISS

| IC50 (BV-2 [1]) [µM] | SMILES | CC50 at 24 h [2] [µM] | also measured |
| --- | --- | --- | --- |
| 13 | C/C(=C\CC[C@]1(C)CCc2cc(O)cc(C)c2O1)CC/C=C(\C)C(=O)/C=C/C(C)(C)O | > 50 |  |
| 5 | CC(C)=CC(CO)/C(=C/CC/C(C)=C/CC[C@]1(C)CCc2cc(O)cc(C)c2O1)CO (some centres not stated) | > 50 |  |
| 2 | CC(=O)/C=C/C/C(C)=C/CC[C@]1(C)CCc2cc(O)cc(C)c2O1 | > 50 | inhibition [3]: Active; Activity (BV-2 [4]): Dose-Dependent Effect; Activity (BV-2 [5]): Dose-Dependent Effect; Activity (BV-2 [6]): Dose-Dependent Effect; Activity (BV-2 [7]): Dose-Dependent Effect; Activity (BV-2 [8]): Dose-Dependent Effect; Activity (BV-2 [9]): Dose-Dependent Effect; Activity (BV-2 [10]): Active; Activity (BV-2 [11]): inactive; Activity (BV-2 [12]): Active; Activity (BV-2 [13]): Active; inhibition [14]: Active |
| > 30 | CC(C)=CC(=O)C/C(C)=C/CC/C(C)=C/CC[C@]1(C)CCc2cc(O)cc(C)c2O1 | > 50 |  |
| 19 | C=C(CC/C=C(\C)[C@H](O)[C@@H](O)C=C(C)C)C(=O)CC[C@]1(C)CCc2cc(O)cc(C)c2O1 | > 50 |  |
| 8 | C/C(=C\CC[C@]1(C)CCc2cc(O)cc(C)c2O1)CC/C=C(\C)C(=O)C(=O)CC(C)C | > 50 |  |
| 25 | CC(C)=C[C@H](O)[C@@H](O)/C(C)=C/CC/C(C)=C/CC[C@]1(C)CCc2cc(O)c(C)c(C)c2O1 | > 50 |  |
| > 30 | CC(C)=CC(=O)C(=O)/C(C)=C/CC/C(C)=C/CC[C@]1(C)CCc2cc(O)cc(C)c2O1 | > 50 |  |
| 6 | CC(C)=CC(O)C(=O)/C(C)=C/[C@H](O)C/C(C)=C/CC[C@]1(C)CCc2cc(O)cc(C)c2O1 (some centres not stated) | > 50 |  |

| SMILES | IC50 (BV-2 [1]) [µM] | CC50 at 24 h [2] [µM] | also measured |
| --- | --- | --- | --- |
| C/C(=C\CC[C@]1(C)CCc2cc(O)cc(C)c2O1)CC/C=C(\C)C(=O)/C=C/C(C)(C)OO | 29 | > 50 |  |
